# Test results published in patent US8044076B2, “Phenyl derivatives and their use as immunomodulators” (Actelion Pharmaceuticals Ltd., priority 2006, dated 2011).
# Molecular target: human S1P1 receptor (Homo sapiens, UniProt P21453)
# Test: GTPγS assay to determine EC50 values
# Format: biochemical
# Conditions: 35S-GTPγS binding, membrane preparations of CHO cells expressing recombinant human S1P1 receptor
# Description: GTPγS binding assays are performed in 96 well microtiter plates (Nunc, 442587) in a final volume of 200 μl, using membrane preparations of CHO cells expressing recombinant human S1P1 receptor. Assay conditions are 20 mM Hepes (Fluka, 54461), 100 mM NaCl (Fluka, 71378), 5 mM MgCl2 (Fluka, 63064), 0.1% BSA (Calbiochem, 126609), 1 μM GDP (Sigma, G-7127), 2.5% DMSO (Fluka, 41644), 50 pM ^35S-GTPγS (Amersham Biosciences, SJ1320). The pH is 7.4. Test compounds are dissolved and diluted in 100% DMSO and pre-incubated at room temperature for 30 min in 150 μl of the above assay buffer, in the absence of ^35S-GTPγS. After addition of 50 μl of ^35S-GTPγS, the assay is incubated for 1 h at rt. The assay is terminated by transfer of the reaction mixture to a Multiscreen plate (Millipore, MAHFC1H60) using a cell harvester from Packard Biosciences, and the plates are washed with ice-cold 10 mM Na2HPO4/NaH2PO4 (70%/30%), dried, sealed at the bottom and, after addition of 25 μl MicroScint20 (Packard Biosciences, order#6013621), sealed on the top. Membrane-bound ^35S-GTPγS is measured with a TopCount from Packard Biosciences.
# EC50 is the concentration of agonist inducing 50% of the maximal specific ^35S-GTPγS binding. Specific binding is determined by subtracting non-specific binding from maximal binding. […]
# The EC50 values were determined according to the method described above: […]
# human S1P1 receptor, sequence (P21453 whole entry): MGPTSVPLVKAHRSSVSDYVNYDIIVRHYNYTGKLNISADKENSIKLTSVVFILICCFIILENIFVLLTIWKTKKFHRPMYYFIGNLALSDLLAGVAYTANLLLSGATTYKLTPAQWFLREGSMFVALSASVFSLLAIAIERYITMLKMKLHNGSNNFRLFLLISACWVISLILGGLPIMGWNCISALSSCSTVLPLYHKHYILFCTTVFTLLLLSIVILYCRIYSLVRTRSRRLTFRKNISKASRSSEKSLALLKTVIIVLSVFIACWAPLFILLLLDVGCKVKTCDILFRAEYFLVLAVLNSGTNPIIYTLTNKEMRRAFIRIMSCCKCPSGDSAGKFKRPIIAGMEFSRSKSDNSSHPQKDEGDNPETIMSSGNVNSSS
row,Structure (SMILES),EC50 [nM]
1,Cc1cc(-c2nc(-c3cc(C)c(OCC(O)CNC(=O)CO)c(C)c3)no2)ccc1CC(C)C (centres unmarked) [Example 20],0.8
2,Cc1cc(-c2nc(-c3cc(C)c(OCC(O)CNC(=O)CO)c(C)c3)no2)ccc1OC(C)C (centres unmarked) [Example 6],0.1
